Reference: patent US9006487B2, “Amine-containing lipids and uses thereof” (Massachusetts Institute of Technology, priority 2005, dated 2015)
Where “and” joins values, the source holds several entries; their conditions need not be identical. Identical values can stand only once.

These molecules were tested on cos-7 cells (assay: DNA transfection: luciferase expression relative to Lipofectamine 2000). Settings: lipid/DNA 2.5 w/w; 300 ng Luciferase DNA per well; luciferase assay after 48 hours.
Assay type: cell-based
Outline: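 Lipid/DNA complexes, 300 ng luciferase DNA per well at 2.5-25 w/w lipid:DNA, were formed in sodium acetate/Optimem and added to overnight-seeded cos-7 cells. Luciferase was measured by Bright-Glo luminescence after 48 hours and quantified against an enzyme standard curve. Values are expressed as % of Lipofectamine 2000 at 2.5 w/w.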

Structure (SMILES)	Luciferase expression as a percentage of that achieved using Lipofectamine 2000
CCCCCCCCCCCCCCOC(=O)CCN(CCC(=O)OCCCCCCCCCCCCCC)CCN1CCCCC1 [LF82]	0.4%
CCCCCCCCCCCCCCOC(=O)CCN(CCC(=O)OCCCCCCCCCCCCCC)CCN(CCO)CCO [LF86]	21.5%
CCCCCCCCCCCCCCOC(=O)CCN(CCCN(CCO)CCO)CCC(=O)OCCCCCCCCCCCCCC [LF87]	19.4%
CCCCCCCCCCCCCCOC(=O)CCN(CCC(=O)OCCCCCCCCCCCCCC)CCN1CCOCC1 [LF90]	0.4% and 0.5%
CCCCCCCCCCCCCCOC(=O)CCN(CCCN1CCOCC1)CCC(=O)OCCCCCCCCCCCCCC [LF91]	0.5%
CCCCCCCCCCCCCCOC(=O)CCN(CCCn1ccnc1)CCC(=O)OCCCCCCCCCCCCCC [LF93]	32.0%
CCCCCCCCCCCCCCOC(=O)CCN(CCC(=O)OCCCCCCCCCCCCCC)CCN(CCC(=O)OCCCCCCCCCCCCCC)CCC(=O)OCCCCCCCCCCCCCC [LF99]	32.2%
CCCCCCCCCCCCCCCOC(=O)CCN(CCCOC)CCC(=O)OCCCCCCCCCCCCCCC [LG1]	0.0%
CCCCCCCCCCCCCCCOC(=O)CCN(CCOC)CCC(=O)OCCCCCCCCCCCCCCC [LG10]	0.0%

Same assay, conditions: lipid/DNA 2.5 w/w; 300 ng of DNA per well

Structure (SMILES)	luciferase expression (second part of table, values relative to LIPO2000)
CCCCCCCCCCCCCCOC(=O)CCN(CCCn1ccnc1)CCC(=O)OCCCCCCCCCCCCCC [LF93]	32.0
CCCCCCCCCCCCCCOC(=O)CCN(CCC(=O)OCCCCCCCCCCCCCC)CCN(CCC(=O)OCCCCCCCCCCCCCC)CCC(=O)OCCCCCCCCCCCCCC [LF99]	32.2

Same assay, conditions: lipid/DNA 5 w/w; 300 ng Luciferase DNA per well; luciferase assay after 48 hours

Structure (SMILES)	Luciferase expression as a percentage of that achieved using Lipofectamine 2000
CCCCCCCCCCCCCCOC(=O)CCN(CCC(=O)OCCCCCCCCCCCCCC)CCN1CCCCC1 [LF82]	0.3%
CCCCCCCCCCCCCCOC(=O)CCN(CCC(=O)OCCCCCCCCCCCCCC)CCN(CCO)CCO [LF86]	17.9%
CCCCCCCCCCCCCCOC(=O)CCN(CCCN(CCO)CCO)CCC(=O)OCCCCCCCCCCCCCC [LF87]	11.3%
CCCCCCCCCCCCCCOC(=O)CCN(CCC(=O)OCCCCCCCCCCCCCC)CCN1CCOCC1 [LF90]	0.5% and 0.4%
CCCCCCCCCCCCCCOC(=O)CCN(CCCN1CCOCC1)CCC(=O)OCCCCCCCCCCCCCC [LF91]	0.5%
CCCCCCCCCCCCCCOC(=O)CCN(CCCn1ccnc1)CCC(=O)OCCCCCCCCCCCCCC [LF93]	50.4%
CCCCCCCCCCCCCCOC(=O)CCN(CCC(=O)OCCCCCCCCCCCCCC)CCN(CCC(=O)OCCCCCCCCCCCCCC)CCC(=O)OCCCCCCCCCCCCCC [LF99]	49.8%
CCCCCCCCCCCCCCCOC(=O)CCN(CCCOC)CCC(=O)OCCCCCCCCCCCCCCC [LG1]	0.0%
CCCCCCCCCCCCCCCOC(=O)CCN(CCOC)CCC(=O)OCCCCCCCCCCCCCCC [LG10]	0.0%

Same assay, conditions: lipid/DNA 5 w/w; 300 ng of DNA per well

Structure (SMILES)	luciferase expression (second part of table, values relative to LIPO2000)
CCCCCCCCCCCCCCOC(=O)CCN(CCCn1ccnc1)CCC(=O)OCCCCCCCCCCCCCC [LF93]	50.4
CCCCCCCCCCCCCCOC(=O)CCN(CCC(=O)OCCCCCCCCCCCCCC)CCN(CCC(=O)OCCCCCCCCCCCCCC)CCC(=O)OCCCCCCCCCCCCCC [LF99]	49.8

Same assay, conditions: lipid/DNA 10 w/w; 300 ng Luciferase DNA per well; luciferase assay after 48 hours

Structure (SMILES)	Luciferase expression as a percentage of that achieved using Lipofectamine 2000
CCCCCCCCCCCCCCOC(=O)CCN(CCC(=O)OCCCCCCCCCCCCCC)CCN1CCCCC1 [LF82]	0.7%
CCCCCCCCCCCCCCOC(=O)CCN(CCC(=O)OCCCCCCCCCCCCCC)CCN(CCO)CCO [LF86]	19.6%
CCCCCCCCCCCCCCOC(=O)CCN(CCCN(CCO)CCO)CCC(=O)OCCCCCCCCCCCCCC [LF87]	30.2%
CCCCCCCCCCCCCCOC(=O)CCN(CCC(=O)OCCCCCCCCCCCCCC)CCN1CCOCC1 [LF90]	0.3% and 0.7%
CCCCCCCCCCCCCCOC(=O)CCN(CCCN1CCOCC1)CCC(=O)OCCCCCCCCCCCCCC [LF91]	0.8%
CCCCCCCCCCCCCCOC(=O)CCN(CCCn1ccnc1)CCC(=O)OCCCCCCCCCCCCCC [LF93]	15.0%
CCCCCCCCCCCCCCOC(=O)CCN(CCC(=O)OCCCCCCCCCCCCCC)CCN(CCC(=O)OCCCCCCCCCCCCCC)CCC(=O)OCCCCCCCCCCCCCC [LF99]	26.5%
CCCCCCCCCCCCCCCOC(=O)CCN(CCCOC)CCC(=O)OCCCCCCCCCCCCCCC [LG1]	0.0%
CCCCCCCCCCCCCCCOC(=O)CCN(CCOC)CCC(=O)OCCCCCCCCCCCCCCC [LG10]	0.0%

Same assay, conditions: lipid/DNA 10 w/w; 300 ng of DNA per well

Structure (SMILES)	luciferase expression (second part of table, values relative to LIPO2000)
CCCCCCCCCCCCCCOC(=O)CCN(CCCn1ccnc1)CCC(=O)OCCCCCCCCCCCCCC [LF93]	15.0
CCCCCCCCCCCCCCOC(=O)CCN(CCC(=O)OCCCCCCCCCCCCCC)CCN(CCC(=O)OCCCCCCCCCCCCCC)CCC(=O)OCCCCCCCCCCCCCC [LF99]	26.5

Same assay, conditions: lipid/DNA 15 w/w; 300 ng Luciferase DNA per well; luciferase assay after 48 hours

Structure (SMILES)	Luciferase expression as a percentage of that achieved using Lipofectamine 2000
CCCCCCCCCCCCCCOC(=O)CCN(CCC(=O)OCCCCCCCCCCCCCC)CCN1CCCCC1 [LF82]	0.5%
CCCCCCCCCCCCCCOC(=O)CCN(CCC(=O)OCCCCCCCCCCCCCC)CCN(CCO)CCO [LF86]	21.2%
CCCCCCCCCCCCCCOC(=O)CCN(CCCN(CCO)CCO)CCC(=O)OCCCCCCCCCCCCCC [LF87]	13.3%
CCCCCCCCCCCCCCOC(=O)CCN(CCC(=O)OCCCCCCCCCCCCCC)CCN1CCOCC1 [LF90]	1.3% and 0.4%
CCCCCCCCCCCCCCOC(=O)CCN(CCCN1CCOCC1)CCC(=O)OCCCCCCCCCCCCCC [LF91]	1.4%
CCCCCCCCCCCCCCOC(=O)CCN(CCCn1ccnc1)CCC(=O)OCCCCCCCCCCCCCC [LF93]	150.7%
CCCCCCCCCCCCCCOC(=O)CCN(CCC(=O)OCCCCCCCCCCCCCC)CCN(CCC(=O)OCCCCCCCCCCCCCC)CCC(=O)OCCCCCCCCCCCCCC [LF99]	10.7%
CCCCCCCCCCCCCCCOC(=O)CCN(CCCOC)CCC(=O)OCCCCCCCCCCCCCCC [LG1]	0.0%
CCCCCCCCCCCCCCCOC(=O)CCN(CCOC)CCC(=O)OCCCCCCCCCCCCCCC [LG10]	0.0%

Same assay, conditions: lipid/DNA 15 w/w; 300 ng of DNA per well

Structure (SMILES)	luciferase expression (second part of table, values relative to LIPO2000)
CCCCCCCCCCCCCCOC(=O)CCN(CCCn1ccnc1)CCC(=O)OCCCCCCCCCCCCCC [LF93]	150.7
CCCCCCCCCCCCCCOC(=O)CCN(CCC(=O)OCCCCCCCCCCCCCC)CCN(CCC(=O)OCCCCCCCCCCCCCC)CCC(=O)OCCCCCCCCCCCCCC [LF99]	10.7

Same assay, conditions: lipid/DNA 20 w/w; 300 ng Luciferase DNA per well; luciferase assay after 48 hours

Structure (SMILES)	Luciferase expression as a percentage of that achieved using Lipofectamine 2000
CCCCCCCCCCCCCCOC(=O)CCN(CCC(=O)OCCCCCCCCCCCCCC)CCN1CCCCC1 [LF82]	0.6%
CCCCCCCCCCCCCCOC(=O)CCN(CCC(=O)OCCCCCCCCCCCCCC)CCN(CCO)CCO [LF86]	10.5%
CCCCCCCCCCCCCCOC(=O)CCN(CCCN(CCO)CCO)CCC(=O)OCCCCCCCCCCCCCC [LF87]	11.0%
CCCCCCCCCCCCCCOC(=O)CCN(CCC(=O)OCCCCCCCCCCCCCC)CCN1CCOCC1 [LF90]	1.1% and 0.4%
CCCCCCCCCCCCCCOC(=O)CCN(CCCN1CCOCC1)CCC(=O)OCCCCCCCCCCCCCC [LF91]	1.3%
CCCCCCCCCCCCCCOC(=O)CCN(CCCn1ccnc1)CCC(=O)OCCCCCCCCCCCCCC [LF93]	143.2%
CCCCCCCCCCCCCCOC(=O)CCN(CCC(=O)OCCCCCCCCCCCCCC)CCN(CCC(=O)OCCCCCCCCCCCCCC)CCC(=O)OCCCCCCCCCCCCCC [LF99]	6.0%
CCCCCCCCCCCCCCCOC(=O)CCN(CCCOC)CCC(=O)OCCCCCCCCCCCCCCC [LG1]	0.0%
CCCCCCCCCCCCCCCOC(=O)CCN(CCOC)CCC(=O)OCCCCCCCCCCCCCCC [LG10]	0.0%

Same assay, conditions: lipid/DNA 20 w/w; 300 ng of DNA per well

Structure (SMILES)	luciferase expression (second part of table, values relative to LIPO2000)
CCCCCCCCCCCCCCOC(=O)CCN(CCCn1ccnc1)CCC(=O)OCCCCCCCCCCCCCC [LF93]	143.2
CCCCCCCCCCCCCCOC(=O)CCN(CCC(=O)OCCCCCCCCCCCCCC)CCN(CCC(=O)OCCCCCCCCCCCCCC)CCC(=O)OCCCCCCCCCCCCCC [LF99]	6.0

Same assay, conditions: lipid/DNA 25 w/w; 300 ng Luciferase DNA per well; luciferase assay after 48 hours

Structure (SMILES)	Luciferase expression as a percentage of that achieved using Lipofectamine 2000
CCCCCCCCCCCCCCOC(=O)CCN(CCC(=O)OCCCCCCCCCCCCCC)CCN1CCCCC1 [LF82]	0.8%
CCCCCCCCCCCCCCOC(=O)CCN(CCC(=O)OCCCCCCCCCCCCCC)CCN(CCO)CCO [LF86]	10.4%
CCCCCCCCCCCCCCOC(=O)CCN(CCCN(CCO)CCO)CCC(=O)OCCCCCCCCCCCCCC [LF87]	10.0%
CCCCCCCCCCCCCCOC(=O)CCN(CCC(=O)OCCCCCCCCCCCCCC)CCN1CCOCC1 [LF90]	1.5% and 0.4%
CCCCCCCCCCCCCCOC(=O)CCN(CCCN1CCOCC1)CCC(=O)OCCCCCCCCCCCCCC [LF91]	1.6%
CCCCCCCCCCCCCCOC(=O)CCN(CCCn1ccnc1)CCC(=O)OCCCCCCCCCCCCCC [LF93]	171.3%
CCCCCCCCCCCCCCOC(=O)CCN(CCC(=O)OCCCCCCCCCCCCCC)CCN(CCC(=O)OCCCCCCCCCCCCCC)CCC(=O)OCCCCCCCCCCCCCC [LF99]	6.2%
CCCCCCCCCCCCCCCOC(=O)CCN(CCCOC)CCC(=O)OCCCCCCCCCCCCCCC [LG1]	0.0%
CCCCCCCCCCCCCCCOC(=O)CCN(CCOC)CCC(=O)OCCCCCCCCCCCCCCC [LG10]	0.0%

Same assay, conditions: lipid/DNA 25 w/w; 300 ng of DNA per well

Structure (SMILES)	luciferase expression (second part of table, values relative to LIPO2000)
CCCCCCCCCCCCCCOC(=O)CCN(CCCn1ccnc1)CCC(=O)OCCCCCCCCCCCCCC [LF93]	171.3
CCCCCCCCCCCCCCOC(=O)CCN(CCC(=O)OCCCCCCCCCCCCCC)CCN(CCC(=O)OCCCCCCCCCCCCCC)CCC(=O)OCCCCCCCCCCCCCC [LF99]	6.2
